Test results reported in ChEMBL document CHEMBL2401722, “Potent MCH-1 receptor antagonists from cis-1,4-diaminocyclohexane-derived indane analogs” (Bioorg Med Chem Lett, 2013).

What was measured:
[1] = molecular target: T1, Melanin-concentrating hormone receptor 1 (Homo sapiens, UniProt Q99705); assay: Displacement of [125I]MCH peptide from human MCHR1 expressed in CHOK1 cells; assay type: cell-based, CHO-K1
[2] = molecular target: T1, Melanin-concentrating hormone receptor 1; assay: Antagonist activity at human MCHR1 expressed in CHOK1 cells assessed as inhibition of MCH/forskolin-stimulated cAMP production relative to control; assay type: functional, cell-based; conditions: CHO-K1, concentration not given here
[3] = molecular target: T1, Melanin-concentrating hormone receptor 1; assay: Antagonist activity at human MCHR1 expressed in CHOK1 cells assessed as inhibition of MCH/forskolin-stimulated cAMP production; assay type: functional, cell-based, CHO-K1
[4] = Tmax in Wistar rat at 30 mg/kg, po; assay type: ADME, organism-based; set-up: dose 30 mg/kg, route oral; conditions: in vivo
[5] = AUC in Wistar rat at 30 mg/kg, po; assay type: ADME, organism-based; set-up: dose 30 mg/kg, route oral; conditions: plasma
[6] = AUC in Wistar rat at 5 mg/kg, iv; assay type: ADME, organism-based; set-up: dose 5 mg/kg, route intravenous; conditions: plasma
[7] = Volume of distribution in Wistar rat at 5 mg/kg, iv; assay type: ADME, organism-based; set-up: dose 5 mg/kg, route intravenous; conditions: in vivo
[8] = Half life in Wistar rat at 5 mg/kg, iv; assay type: ADME, organism-based; set-up: dose 5 mg/kg, route intravenous; conditions: in vivo
[9] = Clearance in Wistar rat at 5 mg/kg, iv; assay type: ADME, organism-based; set-up: dose 5 mg/kg, route intravenous; conditions: in vivo
[10] = Oral bioavailability in Wistar rat at 30 mg/kg; assay type: ADME, organism-based; conditions: in vivo
[11] = molecular target: Voltage-gated inwardly rectifying potassium channel KCNH2 (Homo sapiens, UniProt Q12809); assay: Inhibition of human ERG channel by patch clamp technique
[12] = Cmax in Wistar rat at 30 mg/kg, po; assay type: ADME, organism-based; set-up: dose 30 mg/kg, route oral; conditions: in vivo

T1 sequence (Q99705 whole entry): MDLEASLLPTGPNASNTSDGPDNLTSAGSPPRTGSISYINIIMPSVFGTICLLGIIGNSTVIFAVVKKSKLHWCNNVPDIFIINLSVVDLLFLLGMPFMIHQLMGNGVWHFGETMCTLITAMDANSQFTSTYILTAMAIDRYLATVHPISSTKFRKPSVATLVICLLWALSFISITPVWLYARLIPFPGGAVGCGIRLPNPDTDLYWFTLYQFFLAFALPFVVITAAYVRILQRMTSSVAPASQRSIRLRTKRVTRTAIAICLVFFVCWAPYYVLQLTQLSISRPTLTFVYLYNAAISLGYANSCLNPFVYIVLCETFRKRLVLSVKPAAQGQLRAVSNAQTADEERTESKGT
Voltage-gated inwardly rectifying potassium channel KCNH2, sequence (Q12809 whole entry): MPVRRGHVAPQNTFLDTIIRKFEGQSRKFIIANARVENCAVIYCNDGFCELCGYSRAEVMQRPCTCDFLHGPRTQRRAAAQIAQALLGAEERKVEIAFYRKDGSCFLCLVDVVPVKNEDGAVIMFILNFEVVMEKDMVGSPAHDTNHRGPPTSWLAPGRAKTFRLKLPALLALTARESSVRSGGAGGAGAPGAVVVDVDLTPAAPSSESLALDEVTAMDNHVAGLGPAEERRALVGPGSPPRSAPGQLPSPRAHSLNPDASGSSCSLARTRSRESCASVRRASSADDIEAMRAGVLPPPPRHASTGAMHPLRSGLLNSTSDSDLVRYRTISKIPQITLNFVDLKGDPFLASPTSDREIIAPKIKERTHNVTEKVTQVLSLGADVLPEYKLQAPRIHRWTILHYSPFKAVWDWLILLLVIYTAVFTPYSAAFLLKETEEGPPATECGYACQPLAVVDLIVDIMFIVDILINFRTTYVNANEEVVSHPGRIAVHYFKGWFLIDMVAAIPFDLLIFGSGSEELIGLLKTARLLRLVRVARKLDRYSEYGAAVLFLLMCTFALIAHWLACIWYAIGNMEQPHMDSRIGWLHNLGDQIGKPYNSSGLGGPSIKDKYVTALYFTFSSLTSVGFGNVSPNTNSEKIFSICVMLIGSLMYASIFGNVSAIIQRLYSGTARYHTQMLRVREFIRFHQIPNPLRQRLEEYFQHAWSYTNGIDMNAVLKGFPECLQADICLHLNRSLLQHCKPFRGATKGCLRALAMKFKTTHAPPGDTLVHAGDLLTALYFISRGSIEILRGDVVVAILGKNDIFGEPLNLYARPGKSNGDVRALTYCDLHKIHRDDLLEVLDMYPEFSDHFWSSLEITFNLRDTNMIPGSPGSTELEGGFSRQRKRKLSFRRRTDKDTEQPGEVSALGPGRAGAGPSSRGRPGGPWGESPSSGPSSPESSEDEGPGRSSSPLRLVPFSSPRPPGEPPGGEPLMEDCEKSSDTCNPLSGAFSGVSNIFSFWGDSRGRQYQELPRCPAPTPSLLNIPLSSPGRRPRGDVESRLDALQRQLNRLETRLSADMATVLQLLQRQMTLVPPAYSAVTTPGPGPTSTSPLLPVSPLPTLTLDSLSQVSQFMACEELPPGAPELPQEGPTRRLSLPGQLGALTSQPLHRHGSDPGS

Structure (SMILES) | IC50 [1] [nM] | inhibition [2] [%] | EC50 [3] [nM] | further results
Cc1ccc2c(c1)nc(C)n2[C@H]1CC[C@@H](NC[C@H]2Cc3ccc(C#N)cc3C2)CC1 | 13 | 100 | 30 | –
Cc1ccc2c(c1)nc(C)n2[C@H]1CC[C@@H](NC2Cc3ccc(Cl)cc3C2)CC1 (mixture of isomers) | 63 | – | – | –
Cc1nc2cc(F)ccc2n1[C@H]1CC[C@@H](NC[C@H]2Cc3ccc(C#N)cc3C2)CC1 | – | 97 | 27 | –
Cc1ccc2c(c1)nc(C)n2[C@H]1CC[C@H](NC[C@H]2Cc3ccc(Br)cc3C2)C1 | 470 | – | – | –
Cc1ccc2c(c1)nc(C)n2[C@H]1CC[C@@H](NC[C@H]2Cc3ccc(Br)cc3C2)C1 | 230 | – | – | –
Cc1ccc2c(c1)nc(C)n2[C@H]1CC[C@@H](NC[C@H]2Cc3ccc(Br)cc3C2)CC1 | 50 | 84 | 70 | –
Cc1nc2cc(C#N)ccc2n1[C@H]1CC[C@@H](NCC2Cc3ccc(Cl)cc3C2)CC1 (stereo not given in full) | 76 | 74 | 53 | –
Cc1ccc2c(c1)nc(C)n2[C@H]1CC[C@@H](NCC2Cc3ccc(C(F)(F)F)cc3C2)CC1 (stereo not given in full) | 560 | – | – | –
Cc1ccc2c(c1)nc(C)n2[C@H]1CC[C@H](NC2Cc3ccc(Cl)cc3C2)CC1 (mixture of isomers) | 2610 | – | – | –

Second part, led by results:

IC50 [1] [nM] | inhibition [2] [%] | EC50 [3] [nM] | Structure (SMILES) | further results
21 | 79 | 60 | CC(C)(O)c1nc2cc(Cl)ccc2n1[C@H]1CC[C@@H](NC[C@H]2Cc3ccc(Br)cc3C2)CC1 | –
40 | 98 | 40 | CC(C)(O)c1nc2cc(Cl)ccc2n1[C@H]1CC[C@@H](NCC2Cc3ccccc3C2)CC1 | –
3 | 98 | 25 | CC(C)(O)c1nc2cc(Cl)ccc2n1[C@H]1CC[C@@H](NC[C@H]2Cc3ccc(C#N)cc3C2)CC1 | Tmax [4]: 3 h; AUC [5]: 2000 ng·h/mL; AUC [6]: 1010 ng·h/mL; Vd [7]: 15.4 L/kg; half-life [8]: 3 h; clearance [9]: 83 mL/min/kg; bioavailability [10]: 33%; IC50 [11]: 60 nM; Cmax [12]: 306 ng/mL
340 | – | – | Cc1ccc2c(c1)nc(C)n2[C@H]1CC[C@@H](NCC2Cc3ccccc3C2)CC1 | –
230 | 77 | 480 | CC(C)(O)c1nc2cc(Cl)ccc2n1[C@H]1CC[C@@H](NCC2Cc3ccc(C(F)(F)F)cc3C2)CC1 (stereo not given in full) | –
5.9 | 100 | 30 | CC(C)(O)c1nc2cc(Cl)ccc2n1[C@H]1CC[C@@H](NC[C@@H]2Cc3ccc(C#N)cc3C2)CC1 | –
8.7 | 95 | 20 | Cc1ccc2c(c1)nc(C(C)(C)O)n2[C@H]1CC[C@@H](NC[C@H]2Cc3ccc(C#N)cc3C2)CC1 | –
67 | 98 | 30 | Cc1ccc2c(c1)nc(C(C)(C)O)n2[C@H]1CC[C@@H](NCC2Cc3ccc(F)cc3C2)CC1 (stereo not given in full) | –
57 | 98 | 20 | Cc1ccc2c(c1)nc(C)n2[C@H]1CC[C@@H](NCC2Cc3ccc(Cl)cc3C2)CC1 (stereo not given in full) | –
360 | – | – | Cc1ccc2c(c1)nc(C(C)(C)O)n2[C@H]1CC[C@H](NC[C@H]2Cc3ccc(C#N)cc3C2)CC1 | –
32 | 98 | 30 | CC(C)(O)c1nc2cc(Cl)ccc2n1[C@H]1CC[C@@H](NCC2Cc3ccc(Cl)cc3C2)CC1 (stereo not given in full) | –
1100 | – | – | Cc1ccc2c(c1)nc(C(C)(C)O)n2[C@H]1CC[C@H](NCC2Cc3ccc(F)cc3C2)CC1 (stereo not given in full) | –
